This note sets out measurements from US20230131427A1, “FUNGICIDAL COMPOSITIONS” (SYNGENTA CROP PROTECTION AG, priority 2020, published 2023).

Like-named read-outs stand apart in the source and are kept apart here.

One experiment has as its system Phakopsora pachyrhizi. The experiment can be described thus: Example B5: preventative activity against Phakopsora pachyrhizi (soybean rust), whole soybean plants sprayed, leaf disks inoculated. The experiment is classed as in vivo. The following applies: for Observed Activity (%) (% of untreated): active ingredient alone; for Observed Activity (% of untreated) against Phakopsora pachyrhizi / Observed Activity (%) (% of untreated) against Phakopsora pachyrhizi / inhibition at 22.5 g/ha / inhibition at 45 g/ha: applied alone. As to the method: Whole soybean plants are treated with the recited active ingredients 4 weeks after planting. 1 day after spraying leaf disks are cut from the first trifoliate leaf. Five repetitions at each rate are conducted. The leaf disks are inoculated with Phakopsora pachyrhizi (Asian soybean rust) one day after treatment.
Evaluation of the leaf disks is conducted 11 to 14 days after inoculation and the activity is derived from the relation of the treated vs untreated, infested check (100=no disease, no damage to the leaf, 0=high infestation, leaf damaged heavily). The rates of the active ingredients used are given in the tables as g active ingredient (a.i.)/ha.

Experiment [1] relates to Glomerella lagenarium syn. Colletotrichum lagenarium. The experiment can be described thus: Example B1: mixtures, preventative activity against Glomerella lagenarium syn. Colletotrichum lagenarium, liquid culture. The experiment is classed as cell-based. Conditions: for inhibition at 0.1 ppm / inhibition at 0.3 ppm: Colletotrichum orbiculare, read-out: Activity (%) B. The text has this:
(§1) This occurs whenever the action of an active ingredient combination is greater than the sum of the actions of the individual components. The action to be expected E for a given active ingredient combination obeys the so-called COLBY formula and can be calculated as follows (COLBY, S. R. “Calculating synergistic and antagonistic responses of herbicide combination”. Weeds, Vol. 15, pages 20-22; 1967):
(§2) If the action actually observed (O) is greater than the expected action (E), then the action of the combination is super-additive, i.e. there is a synergistic effect. In mathematical terms, synergism corresponds to a positive value for the difference of (O-E). In the case of purely complementary addition of activities (expected activity), said difference (O-E) is zero. A negative value of said difference (O-E) signals a loss of activity compared to the expected activity.
(§3) Conidia of the fungus from cryogenic storage were directly mixed into nutrient broth (PDB potato dextrose broth). A DMSO solution of the test compounds was placed into a microtiter plate (96-well format) and the nutrient broth containing the fungal spores was added to it.
(§4) Fungicidal activity was evaluated on a 100-0 scale (100=no disease growth; 0=well completely covered by mycelium).

The next experiment has as its system Septoria tritici. The experiment can be described thus: Example B3: mixtures, preventative activity against Septoria tritici (leaf blotch), liquid culture. It counts as cell-based. The following applies: for Activity (%) B: component B alone, 100-0 scale; for inhibition at 0.1 ppm / inhibition at 0.3 ppm: Zymoseptoria tritici, read-out: Activity (%) B.
Text: as §1, §2, §3, §4

Setting [2] is: Phakopsora pachyrhizi, foliar, read-out: Observed Activity (% of untreated) against Phakopsora pachyrhizi.

For `Cn1cc(C(=O)Nc2cccc3c2[C@@H]2CC[C@H]3C2=C(Cl)Cl)c(C(F)F)n1` (racemic) [benzovindiflupyr, reference compound], the figures for the “Observed Activity (%) (% of untreated)” value in the experiment with Phakopsora pachyrhizi (2.25 g/ha), in the experiment with Phakopsora pachyrhizi (4.5 g/ha) and in the experiment with Phakopsora pachyrhizi (9 g/ha) were 34%, 80% and 99%, respectively. Also, the “Observed Activity (% of untreated) against Phakopsora pachyrhizi” value (“Observed Activity (% of untreated)” for short) in the experiment with Phakopsora pachyrhizi (2.25 g/ha) is on record as 34%; in the experiment on Phakopsora pachyrhizi (4.5 g/ha), 80%; in the experiment on Phakopsora pachyrhizi (9 g/ha) it was 99%. Besides, the “Activity (%) B” value is 50% in experiment [1] (component B alone, 0.1 ppm); 100% in experiment [1] (component B alone, 0.3 ppm); 50% in the experiment with Septoria tritici (0.1 ppm); 70% in the experiment with Septoria tritici (0.3 ppm).

Regarding `[Cl-].[Cu+2].[Cu+2].[OH-].[OH-].[OH-]` [copper oxychloride, reference compound], the figures for the “Observed Activity (% of untreated)” value with Phakopsora pachyrhizi (22.5 g/ha) and in the experiment on Phakopsora pachyrhizi (45 g/ha) were 2% and 5%, respectively. Also, the “Activity (%) B” value is given as 0% in experiment [1] (component B alone, 0.1 ppm) and 0% in experiment [1] (component B alone, 0.3 ppm).

Regarding `N#Cc1c[nH]cc1-c1cccc2c1OC(F)(F)O2` [fludioxonil, reference compound], in the experiment with Phakopsora pachyrhizi (setting [2]), the inhibition at 450 g/ha amounted to 0% and the inhibition at 900 g/ha amounted to 1%. Besides, in experiment [1], the inhibition at 0.1 ppm was found to be 0% and the inhibition at 0.3 ppm turned out to be 0%. Besides, in the experiment on Septoria tritici (72 h), the inhibition at 0.1 ppm turned out to be 0% and the inhibition at 0.3 ppm was found to be 20%. Moreover, in the experiment on Septoria tritici, the inhibition at 0.1 ppm stood at 0% and the inhibition at 0.3 ppm is 20%.

With `Cn1cc(C(=O)Nc2ccccc2-c2cc(F)c(F)c(F)c2)c(C(F)F)n1` [fluxapyroxad, reference compound], the “Observed Activity (% of untreated)” value in the experiment with Phakopsora pachyrhizi (2.25 g/ha) is recorded as 8%; in the experiment with Phakopsora pachyrhizi (4.5 g/ha), 7%; with Phakopsora pachyrhizi (9 g/ha), 66%. In addition, the “Activity (%) B” value came out at 0% in experiment [1] (component B alone, 0.1 ppm) and 0% in experiment [1] (component B alone, 0.3 ppm).

In the case of `Cc1cccc(-n2nnn(C)c2=O)c1COc1ccn(-c2ccc(Cl)cc2)n1` [metyltetraprole, reference compound], the “Observed Activity (%) (% of untreated)” value is 1% in the experiment on Phakopsora pachyrhizi (2.25 g/ha), 0% in the experiment on Phakopsora pachyrhizi (4.5 g/ha), 7% in the experiment on Phakopsora pachyrhizi (9 g/ha) and 67% in the experiment with Phakopsora pachyrhizi (18 g/ha). In addition, the “Observed Activity (% of untreated)” value with Phakopsora pachyrhizi (2.25 g/ha) amounted to 1%; in the experiment on Phakopsora pachyrhizi (4.5 g/ha), 0%; in the experiment on Phakopsora pachyrhizi (9 g/ha), 7%; in the experiment on Phakopsora pachyrhizi (18 g/ha), 67%. Also, the “Activity (%) B” value in experiment [1] (component B alone, 0.1 ppm) is 90%; in experiment [1] (component B alone, 0.3 ppm), 90%.

Take `CON(C(=O)c1cn(C)nc1C(F)F)C(C)Cc1c(Cl)cc(Cl)cc1Cl` (stereo not shown) [pydiflumetofen, reference compound]: the “Observed Activity (%) (% of untreated) against Phakopsora pachyrhizi” value is recorded as 28% with Phakopsora pachyrhizi (22.5 g/ha) and 74% in the experiment with Phakopsora pachyrhizi (45 g/ha). The “Activity (%) B” value was 0% in experiment [1] (component B alone, 0.1 ppm) and 0% in experiment [1] (component B alone, 0.3 ppm).

As to `S1SSSSSSS1` [sulphur], the inhibition at 0.1 ppm in experiment [1] (component B alone, 0.1 ppm) amounted to 0%. Moreover, in experiment [1] (component B alone, 0.3 ppm), the inhibition at 0.3 ppm turned out to be 0%.

For the compound `CCOC(=O)C1CC(=O)C(=C(O)C2CC2)C(=O)C1` (stereo not shown) [trinexapac-ethyl, reference compound], the inhibition at 22.5 g/ha worked out at 0% in the experiment on Phakopsora pachyrhizi (Phakopsora pachyrhizi, foliar, 22.5 g/ha, read-out: Observed Activity (% of untreated) against Phakopsora pachyrhizi) and 0% in the experiment with Phakopsora pachyrhizi (Phakopsora pachyrhizi, foliar, 22.5 g/ha, read-out: Observed Activity (%) (% of untreated) against Phakopsora pachyrhizi). Further, the inhibition at 45 g/ha in the experiment on Phakopsora pachyrhizi (Phakopsora pachyrhizi, foliar, 45 g/ha, read-out: Observed Activity (% of untreated) against Phakopsora pachyrhizi) was 0%; in the experiment on Phakopsora pachyrhizi (Phakopsora pachyrhizi, foliar, 45 g/ha, read-out: Observed Activity (%) (% of untreated) against Phakopsora pachyrhizi) it was 0%. Further, the inhibition at 0.1 ppm in experiment [1] (component B alone, 0.1 ppm) is 0%. Further, the inhibition at 0.3 ppm in experiment [1] (component B alone, 0.3 ppm) was 0%.
